Data as given in US20050048508A1, “Trehalose receptor and method for detecting trehalose with the same” (KABUSHIKI KAISHA HAYASHIBARA SEIBUTSU KAGAKU KENKYUJO, priority 2002, published 2005).

Target: T1, T1R1 and T1R3 with G protein α-subunits (α15 and α16/Z chimeric protein) (Mus musculus, UniProt Q925D8+Q99PG6, I706N)
T1 construct: expressed in transfected cells; host or cells: 293 cells, RCB 1637 (human embryonic kidney)
T1 sequence (Q99PG6 20-842 L120P/N244D/D281A/N309Y/P311T/S314P/H418Y): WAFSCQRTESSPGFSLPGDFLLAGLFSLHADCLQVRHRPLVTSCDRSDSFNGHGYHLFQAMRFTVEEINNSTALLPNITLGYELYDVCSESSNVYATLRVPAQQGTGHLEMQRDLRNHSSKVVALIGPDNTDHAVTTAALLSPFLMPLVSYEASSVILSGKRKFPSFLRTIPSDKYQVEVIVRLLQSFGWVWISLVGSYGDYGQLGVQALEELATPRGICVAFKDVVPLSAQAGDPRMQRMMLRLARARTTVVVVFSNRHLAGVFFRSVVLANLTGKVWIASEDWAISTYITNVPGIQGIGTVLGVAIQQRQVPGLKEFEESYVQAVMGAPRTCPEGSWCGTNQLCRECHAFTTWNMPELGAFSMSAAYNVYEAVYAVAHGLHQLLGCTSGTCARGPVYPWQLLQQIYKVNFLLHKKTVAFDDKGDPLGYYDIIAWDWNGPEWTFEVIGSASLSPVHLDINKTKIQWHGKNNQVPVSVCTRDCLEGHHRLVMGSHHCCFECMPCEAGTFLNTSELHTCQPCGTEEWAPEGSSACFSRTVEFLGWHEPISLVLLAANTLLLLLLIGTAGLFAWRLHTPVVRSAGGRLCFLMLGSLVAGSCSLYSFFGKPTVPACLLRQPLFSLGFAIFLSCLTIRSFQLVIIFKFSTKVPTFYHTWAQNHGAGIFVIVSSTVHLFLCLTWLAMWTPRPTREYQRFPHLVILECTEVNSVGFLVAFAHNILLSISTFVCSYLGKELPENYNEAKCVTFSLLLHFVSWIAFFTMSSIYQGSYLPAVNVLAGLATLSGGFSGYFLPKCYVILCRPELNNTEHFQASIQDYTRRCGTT
T1 sequence (Q925D8 21-858 I706N): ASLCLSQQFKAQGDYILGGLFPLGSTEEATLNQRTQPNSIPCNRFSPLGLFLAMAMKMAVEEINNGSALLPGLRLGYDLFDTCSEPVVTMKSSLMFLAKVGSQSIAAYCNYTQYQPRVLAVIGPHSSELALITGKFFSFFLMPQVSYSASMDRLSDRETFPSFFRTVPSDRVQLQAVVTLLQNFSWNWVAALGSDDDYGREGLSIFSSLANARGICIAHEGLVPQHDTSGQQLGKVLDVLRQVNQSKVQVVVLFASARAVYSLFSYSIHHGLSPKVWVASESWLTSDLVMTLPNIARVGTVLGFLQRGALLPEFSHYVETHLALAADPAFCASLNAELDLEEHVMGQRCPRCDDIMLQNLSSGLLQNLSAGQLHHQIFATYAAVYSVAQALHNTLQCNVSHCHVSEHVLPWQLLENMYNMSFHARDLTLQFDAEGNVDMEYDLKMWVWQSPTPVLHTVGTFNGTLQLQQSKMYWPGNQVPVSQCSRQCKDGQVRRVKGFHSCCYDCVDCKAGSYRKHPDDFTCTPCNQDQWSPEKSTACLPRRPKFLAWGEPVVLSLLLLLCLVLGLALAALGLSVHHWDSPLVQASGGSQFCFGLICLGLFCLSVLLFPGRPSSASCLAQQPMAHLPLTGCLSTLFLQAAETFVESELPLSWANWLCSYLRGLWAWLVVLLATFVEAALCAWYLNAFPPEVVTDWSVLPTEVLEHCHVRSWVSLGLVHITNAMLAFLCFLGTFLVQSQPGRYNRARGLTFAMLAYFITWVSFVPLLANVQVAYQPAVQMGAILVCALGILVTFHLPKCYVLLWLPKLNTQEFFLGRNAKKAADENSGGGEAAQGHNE
Assay: Intracellular calcium ion assay, 293 cells coexpressing G protein α-subunits, T1R1 and T1R3
Format: cell-based
Details: 293 cells: T1R1 + T1R3 + G protein α-subunits; 0.67 ml of 1 M saccharide solution added to 2 ml cell suspension; FLUO-4 AM
Procedure: The coexpression vector for the G protein α-subunit α15 and the G protein α16/Z chimeric protein (hereinafter designated as “G protein α-subunits”) obtained in Example 1-3 was gene transferred to 293 cells, RCB 1637, a human embryonic kidney cell line, available from the Riken Bioresource Center, Ibaraki, Japan, by conventional lipofection. The gene transferred cells were suspended in Dulbecco's Modified Eagle's Medium (D-MEM) supplemented with 1 mg/L of “PUROMYCIN”, a trade mane of puromycin commercialized by Edge Biosystems, MD, USA, and 10% (v/v) of fetal calf serum to give a cell density of 2×10^6 cells/ml and cultured in a plastic petri dish for cell culture. […]
The captioned reactivity test was conducted according to a conventional intracellular calcium ion assay: 293 Cells prepared in Example 3, capable of coexpressing the G protein α-subunits and the sweet taste receptor(s), were cultured in a plastic petri dish for cell culture until reaching its confluent phase. […] Two milliliters of the resultant cell suspension was injected into a glass cuvette, commercialized by Hitachi, Ltd., Tokyo, Japan, and analyzed on “HITACHI 650-40”, a fluorescence spectrophotometer commercialized by Hitachi, Ltd., Tokyo, Japan. […]

Influx of calcium ion	SMILES
Positive	OC[C@H]1O[C@H](O[C@H]2O[C@H](CO)[C@@H](O)[C@H](O)[C@H]2O)[C@H](O)[C@@H](O)[C@@H]1O [Trehalose]
Negative	OC[C@H]1O[C@@](CO)(O[C@H]2O[C@H](CO)[C@@H](O)[C@H](O)[C@H]2O)[C@@H](O)[C@@H]1O [Sucrose, reference compound]
